Test results published in ChEMBL document CHEMBL1135321, “Tetrahydrothienopyridylbutyl-tetrahydrobenzindoles: new selective ligands of the 5-HT(7) receptor” (Bioorg Med Chem Lett, 2002).
Active and inactive are the calls of the source. No cut-off for these calls is given here.

Key:
[1] = molecular target: T1, 5-hydroxytryptamine receptor 1A (Homo sapiens, UniProt P08908); test: Ability to displace the radioligand [3H]-8-OH-DPAT from human 5-hydroxytryptamine 1A receptor
T1 sequence (P08908 whole entry): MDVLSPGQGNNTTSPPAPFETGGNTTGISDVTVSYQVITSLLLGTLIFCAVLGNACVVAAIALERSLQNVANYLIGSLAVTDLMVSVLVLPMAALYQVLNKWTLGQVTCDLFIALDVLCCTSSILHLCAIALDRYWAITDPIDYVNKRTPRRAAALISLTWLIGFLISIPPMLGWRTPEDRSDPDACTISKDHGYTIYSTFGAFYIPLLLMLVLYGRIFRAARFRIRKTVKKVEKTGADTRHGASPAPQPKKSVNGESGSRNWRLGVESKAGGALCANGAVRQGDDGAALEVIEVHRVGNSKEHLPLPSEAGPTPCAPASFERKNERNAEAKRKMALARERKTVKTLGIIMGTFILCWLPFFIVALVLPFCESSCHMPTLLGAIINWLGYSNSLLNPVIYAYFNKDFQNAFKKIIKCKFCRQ

HEK293 = test: Influence on 5-HT-induced stimulation of cAMP accumulation in HEK 293 cells; NS is not Stimulated; type: functional, cell-based; settings: Homo sapiens
[2] = molecular target: T2, 5-hydroxytryptamine receptor 4 (Cavia porcellus, UniProt O70528); test: Ability to displace the radioligand [3H]GR-113808 from guinea pig striatum 5-hydroxytryptamine 4 receptor
T2 sequence (O70528 whole entry): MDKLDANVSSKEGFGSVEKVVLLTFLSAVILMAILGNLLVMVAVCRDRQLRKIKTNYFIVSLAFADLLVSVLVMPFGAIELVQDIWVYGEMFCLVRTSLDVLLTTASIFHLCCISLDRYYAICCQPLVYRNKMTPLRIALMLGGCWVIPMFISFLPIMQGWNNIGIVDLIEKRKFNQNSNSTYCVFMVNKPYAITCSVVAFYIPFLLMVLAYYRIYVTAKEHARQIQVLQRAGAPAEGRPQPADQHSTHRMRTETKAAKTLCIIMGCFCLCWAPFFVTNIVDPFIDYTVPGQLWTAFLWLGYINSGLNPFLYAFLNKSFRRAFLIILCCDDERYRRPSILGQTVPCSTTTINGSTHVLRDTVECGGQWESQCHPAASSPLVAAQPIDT

[3] = molecular target: 5-hydroxytryptamine receptor 7 (Homo sapiens, UniProt P34969); test: Ability to displace the radioligand [3H]5-carboxyamidotryptamine ([3H]5-CT) from human 5-hydroxytryptamine 7 receptor expressed in COS-7 cells; type: cell-based
Chain of 5-hydroxytryptamine receptor 7 (P34969 whole entry): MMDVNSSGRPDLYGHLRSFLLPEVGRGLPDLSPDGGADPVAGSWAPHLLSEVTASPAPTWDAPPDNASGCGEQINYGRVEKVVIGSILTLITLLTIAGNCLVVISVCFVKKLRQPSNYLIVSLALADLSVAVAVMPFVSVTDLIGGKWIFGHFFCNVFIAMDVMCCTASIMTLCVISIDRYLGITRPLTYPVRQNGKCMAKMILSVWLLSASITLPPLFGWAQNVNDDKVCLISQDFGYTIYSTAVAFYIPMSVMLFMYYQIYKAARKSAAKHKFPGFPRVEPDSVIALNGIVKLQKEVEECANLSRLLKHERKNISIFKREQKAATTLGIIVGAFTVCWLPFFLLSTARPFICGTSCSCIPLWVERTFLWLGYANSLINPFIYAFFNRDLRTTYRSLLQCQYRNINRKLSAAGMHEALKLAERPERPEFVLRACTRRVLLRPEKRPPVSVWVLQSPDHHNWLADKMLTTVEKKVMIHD

[4] = molecular target: T3, Serotonin 3 receptor (5HT3) (Mus musculus, UniProt Q9JHJ5+P23979); test: Ability to displace the radioligand [3H]GR-65630 from 5-hydroxytryptamine 3 receptor expressed in NIE-115 cells; type: cell-based
T3 sequence (Q9JHJ5 whole entry): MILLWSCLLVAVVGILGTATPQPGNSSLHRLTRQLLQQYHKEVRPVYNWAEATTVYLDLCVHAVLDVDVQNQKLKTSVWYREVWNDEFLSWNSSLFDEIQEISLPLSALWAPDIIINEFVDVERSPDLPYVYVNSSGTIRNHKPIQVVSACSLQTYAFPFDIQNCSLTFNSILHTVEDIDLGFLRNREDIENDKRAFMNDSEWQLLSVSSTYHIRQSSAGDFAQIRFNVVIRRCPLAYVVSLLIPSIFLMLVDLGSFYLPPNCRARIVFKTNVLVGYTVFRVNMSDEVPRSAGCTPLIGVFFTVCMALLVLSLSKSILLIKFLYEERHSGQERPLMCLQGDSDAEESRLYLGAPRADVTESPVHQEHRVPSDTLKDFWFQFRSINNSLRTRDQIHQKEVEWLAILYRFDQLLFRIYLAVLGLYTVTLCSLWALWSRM
T3 sequence (P23979 whole entry): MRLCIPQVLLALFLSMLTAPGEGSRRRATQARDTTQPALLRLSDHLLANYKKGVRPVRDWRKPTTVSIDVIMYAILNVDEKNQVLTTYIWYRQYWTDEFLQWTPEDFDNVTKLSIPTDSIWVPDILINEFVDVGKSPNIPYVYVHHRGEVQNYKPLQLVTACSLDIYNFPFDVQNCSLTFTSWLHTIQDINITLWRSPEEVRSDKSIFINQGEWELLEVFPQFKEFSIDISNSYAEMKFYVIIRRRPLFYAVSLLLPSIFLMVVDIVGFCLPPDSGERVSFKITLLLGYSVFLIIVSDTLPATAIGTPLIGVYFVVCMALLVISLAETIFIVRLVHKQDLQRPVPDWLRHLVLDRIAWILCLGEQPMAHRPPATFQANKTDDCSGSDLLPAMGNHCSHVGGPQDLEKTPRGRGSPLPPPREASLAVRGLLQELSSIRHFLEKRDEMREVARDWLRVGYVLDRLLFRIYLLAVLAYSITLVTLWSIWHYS

[5] = molecular target: Serotonin 2 (5-HT2) receptor (Rattus norvegicus, UniProt P30994+P08909+P14842); test: Ability to displace the radioligand [3H]ketanserin from 5-hydroxytryptamine 2 receptor of rat cerebral cortex membrane; type: tissue-based
[6] = molecular target: T4, 5-hydroxytryptamine receptor 1B (Rattus norvegicus, UniProt P28564); test: Ability to displace the radioligand [125I](-)-iodocyanopindolol from rat striatal 5-hydroxytryptamine 1B receptor
T4 sequence (P28564 whole entry): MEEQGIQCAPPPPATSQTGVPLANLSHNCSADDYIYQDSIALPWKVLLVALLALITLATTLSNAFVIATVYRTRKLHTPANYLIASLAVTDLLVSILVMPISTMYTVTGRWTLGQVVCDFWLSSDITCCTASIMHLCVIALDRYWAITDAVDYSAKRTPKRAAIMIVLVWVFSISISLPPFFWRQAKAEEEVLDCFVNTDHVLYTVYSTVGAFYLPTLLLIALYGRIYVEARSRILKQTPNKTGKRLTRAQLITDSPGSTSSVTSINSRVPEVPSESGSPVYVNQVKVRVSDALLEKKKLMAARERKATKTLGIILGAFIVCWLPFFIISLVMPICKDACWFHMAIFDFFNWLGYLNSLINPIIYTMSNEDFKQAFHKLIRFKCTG

[7] = molecular target: 5-hydroxytryptamine receptor 6 (Homo sapiens, UniProt P50406); test: Ability to displace the radioligand [3H]LSD from human 5-hydroxytryptamine 6 receptor
Chain of 5-hydroxytryptamine receptor 6 (P50406 whole entry): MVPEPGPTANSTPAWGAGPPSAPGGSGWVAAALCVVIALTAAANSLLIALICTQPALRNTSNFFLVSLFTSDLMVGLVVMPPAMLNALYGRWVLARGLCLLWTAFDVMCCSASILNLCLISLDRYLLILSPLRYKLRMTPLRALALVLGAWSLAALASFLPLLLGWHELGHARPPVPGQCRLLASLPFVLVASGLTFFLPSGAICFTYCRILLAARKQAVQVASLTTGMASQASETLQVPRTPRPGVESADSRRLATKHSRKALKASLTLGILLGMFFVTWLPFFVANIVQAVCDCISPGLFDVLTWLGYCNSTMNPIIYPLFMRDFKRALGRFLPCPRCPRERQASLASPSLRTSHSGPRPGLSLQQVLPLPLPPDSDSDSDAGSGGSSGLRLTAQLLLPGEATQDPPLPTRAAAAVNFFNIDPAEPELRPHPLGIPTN

[8] = molecular target: T4, 5-hydroxytryptamine receptor 1B; test: Ability to displace the radioligand [125I](-)-iodocyanopindolol from rat striatal 5-HT1B receptor
[9] = molecular target: T2, 5-hydroxytryptamine receptor 4; test: Ability to displace the radioligand [3H]GR-113808 from guinea pig striatum 5-HT4 receptor

Row | Structure (SMILES) | Ki [3] [nM] | Log Ki [5] | also measured
1 | O=C1Nc2cccc3c2C1(CCCCN1CCc2ccccc2C1)CCC3 (centres undefined) | 4.47 | -6.21 | 
2 | O=C1Nc2cccc3c2C1(CCCCN1CCc2[nH]cnc2C1)CCC3 (centres undefined) | 562 | < -6 | 
3 | CN1C(=O)C2(CCCCN3CCc4sccc4C3)CCCc3cccc1c32 (centres undefined) | 9.77 | -6.02 | Ki [1]: 776 nM; Log Ki [4]: < -6; Ki [8]: > 1000 nM; Ki [9]: > 1000 nM; Ki [7]: > 1000 nM
4 | O=C1Nc2cccc3c2C1(CCCN1CCc2ccccc2C1)CCC3 (centres undefined) | 8.32 | -6.31 | 
5 | O=C1Nc2cccc3c2C1(CCCCN1CCc2occc2C1)CCC3 (centres undefined) | 15.8 | < -6 | 

Continued by falling Ki [3], values first:

Row | Ki [3] [nM] | Log Ki [5] | Structure (SMILES) | also measured
6 | 813 | < -6 | O=C1Nc2cccc3c2C1(CCCCN1CCc2n[nH]cc2C1)CCC3 (centres undefined) | 
7 | 174 | -6.31 | CCN1C(=O)C2(CCCCN3CCc4sccc4C3)CCCc3cccc1c32 (centres undefined) | 
8 | 12.6 | -6.16 | O=C1Nc2cccc3c2C1(CCCCCN1CCc2ccccc2C1)CCC3 (centres undefined) | 
9 | 6.46 | -6.08 | O=C1Nc2cccc3c2C1(CCCCN1CCc2sccc2C1)CCC3 (centres undefined) | Ki [1]: 513 nM; Activity (HEK293): inactive; Ki [2]: > 1000 nM; Log Ki [4]: < -6; Ki [6]: > 1000 nM; Ki [7]: > 1000 nM
